Assay results: ChEMBL document CHEMBL1201862, “PubChem BioAssay data set” (2004)
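The compound was tested at five concentrations on cells cultured in 96-well plates, with a 48-hour exposure period. GI50 = concentration required for 50% inhibition of growth.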 The source made the active and inactive calls. Cut-off read from the data, not from the text of the source: active = GI50 up to about 1.1 µM and inactive = higher.

Legend:
Assay in all cases: NCI-60 cell line screen, 48 h
M14 = test system: M14
K562 = test system: K562
SK-MEL-2 = test system: SK-MEL-2
SK-OV-3 = test system: SK-OV-3
HT-29 = test system: HT-29
SF-295 = test system: SF-295
SK-MEL-28 = test system: SK-MEL-28
OVCAR-5 = test system: OVCAR-5
DLD-1 = test system: DLD-1
SK-MEL-5 = test system: SK-MEL-5
TK-10 = test system: TK-10
OVCAR-4 = test system: OVCAR-4
NCI-H23 = test system: NCI-H23
LOX IMVI = test system: LOX IMVI
HCT-116 = test system: HCT-116
A498 = test system: A498
NCI-H226 = test system: NCI-H226
SNB-19 = test system: SNB-19
MDA-MB-231 = test system: MDA-MB-231
DU-145 = test system: DU-145

Measured: GI50

OCc1nnn2c1CCC2
inactive: M14 > 100 µM | K562 > 100 µM | SK-MEL-2 > 100 µM | SK-OV-3 > 100 µM | HT-29 > 100 µM | SF-295 > 100 µM | SK-MEL-28 > 100 µM | OVCAR-5 > 100 µM | DLD-1 > 100 µM | SK-MEL-5 > 100 µM | TK-10 > 100 µM | OVCAR-4 76 µM | NCI-H23 > 100 µM | LOX IMVI > 100 µM

COC(=O)C(C(=O)C(=O)Nc1ccccc1C(C)=O)c1nc2ccc(Cl)cc2nc1O (stereo unspecified)
inactive: M14 > 100 µM | K562 > 100 µM | SK-MEL-2 > 100 µM | SK-OV-3 > 100 µM | HT-29 > 100 µM | SF-295 > 100 µM | SK-MEL-28 > 100 µM | HCT-116 > 100 µM | OVCAR-5 > 100 µM | DLD-1 > 100 µM | A498 > 100 µM | SK-MEL-5 > 100 µM | TK-10 > 100 µM | NCI-H226 78.3 µM | OVCAR-4 > 100 µM | SNB-19 > 100 µM | NCI-H23 > 100 µM | LOX IMVI > 100 µM

COc1ccc(CC/N=C2\CCC(C(=O)NCCc3ccc(OC)c(OC)c3)N2)cc1OC (stereo unspecified)
inactive: M14 > 100 µM | K562 > 100 µM | SK-MEL-2 > 100 µM | SK-OV-3 > 100 µM | HT-29 > 100 µM | SF-295 > 100 µM | SK-MEL-28 > 100 µM | HCT-116 > 100 µM | OVCAR-5 > 100 µM | DLD-1 > 100 µM | A498 > 100 µM | SK-MEL-5 > 100 µM | TK-10 > 100 µM | NCI-H226 > 100 µM | OVCAR-4 > 100 µM | SNB-19 > 100 µM | NCI-H23 > 100 µM | LOX IMVI > 100 µM

Cc1[nH]c(=O)[nH]c(=O)c1/C=C/C(=O)NC(CO)C[S+]([O-])C[S+](C)[O-] (stereo unspecified)
inactive: K562 19.5 µM | SK-MEL-2 13.5 µM | SK-OV-3 20.5 µM | HT-29 125 µM | SF-295 15.6 µM | SK-MEL-28 17.8 µM | HCT-116 19.3 µM | OVCAR-5 135 µM | DLD-1 20.4 µM | A498 21.8 µM | SK-MEL-5 18 µM | NCI-H226 17.5 µM | OVCAR-4 2.17 µM | SNB-19 13.2 µM | NCI-H23 10.8 µM | LOX IMVI 15.5 µM

NC(=O)C1CCN(Cc2c(Cl)c(Cl)c(CN3CCC(C(N)=O)CC3)c(Cl)c2Cl)CC1
inactive: M14 86.3 µM | K562 > 100 µM | SK-MEL-2 42.9 µM | SK-OV-3 15.1 µM | HT-29 > 100 µM | SF-295 23.7 µM | SK-MEL-28 > 100 µM | HCT-116 > 100 µM | MDA-MB-231 28.8 µM | OVCAR-5 > 100 µM | A498 28.3 µM | SK-MEL-5 > 100 µM | TK-10 > 100 µM | NCI-H226 > 100 µM | OVCAR-4 > 100 µM | SNB-19 43.9 µM | DU-145 > 100 µM | NCI-H23 > 100 µM | LOX IMVI > 100 µM

O=C1CSc2sc(=S)sc2S1
inactive: K562 > 100 µM | SK-MEL-2 > 82.4 µM | SK-OV-3 > 75.3 µM | HT-29 > 29.2 µM | SF-295 > 24.5 µM | SK-MEL-28 > 100 µM | HCT-116 > 100 µM | OVCAR-5 > 100 µM | DLD-1 > 100 µM | A498 31.3 µM | SK-MEL-5 > 100 µM | NCI-H226 > 100 µM | OVCAR-4 > 59.3 µM | SNB-19 > 100 µM | NCI-H23 > 100 µM | LOX IMVI 61.1 µM

Oc1nc(-c2ccccc2)cc(-c2ccccc2O)n1
inactive: M14 > 100 µM | K562 > 100 µM | SK-OV-3 > 100 µM | HT-29 56.6 µM | SF-295 > 100 µM | SK-MEL-28 > 100 µM | HCT-116 83.4 µM | OVCAR-5 62.5 µM | DLD-1 > 100 µM | A498 > 100 µM | TK-10 > 100 µM | NCI-H226 > 100 µM | OVCAR-4 > 100 µM | SNB-19 58.2 µM | NCI-H23 > 100 µM | LOX IMVI 51.5 µM

CO/N=C1/c2sccc2[C@H](NC(=O)CNC(=O)OC(C)(C)C)[C@@H]1O
inactive: M14 > 100 µM | K562 > 100 µM | SK-MEL-2 > 100 µM | SK-OV-3 > 100 µM | HT-29 > 100 µM | SF-295 > 100 µM | SK-MEL-28 > 100 µM | HCT-116 > 100 µM | MDA-MB-231 > 100 µM | OVCAR-5 > 100 µM | A498 > 100 µM | SK-MEL-5 > 100 µM | TK-10 > 100 µM | NCI-H226 > 100 µM | OVCAR-4 > 100 µM | SNB-19 > 100 µM | DU-145 > 100 µM | NCI-H23 > 100 µM | LOX IMVI > 100 µM
